Experimental data from publication PMC8742467, “Therapeutical interference with the epigenetic landscape of germ cell tumors: a comparative drug study and new mechanistical insights” (Clinical Epigenetics, 2022).

Columns and labels:
[1] = tested on: GCT cell lines; assay: XTT cell viability assay, GCT cell lines (pre-screen / summary); type: cell-based, Human
Procedure, shortened: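 GCT cells seeded at 5 × 10^3/well, UC lines at 3 × 10^3/well; drug dilution series or solvent added next day. Viability read by XTT, four technical replicates per condition; EC50 calculated from concentration–response data.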

[2] = tested on: TCam-2 (SE); assay: XTT cell viability assay, TCam-2; type: cell-based; conditions: Homo sapiens, 48 h, read-out: EC50 colour/symbol code, SE TCam-2
Experimental: (§1) The […] (XTT) assays were performed as described previously. In summary, for GCT and fibroblast cell lines 5 × 10^3 cells (3 × 10^3 for UC, PCa and RCC cell lines) per 96-well were seeded and different drug concentrations (see Additional file 2: Fig. S2, Additional file 3: Fig. S3) or corresponding solvents were added to the cells the following day. For drug details see Additional file 12: Table S2 C. Each condition was analyzed in four technical replicates and EC50 values were calculated by GraphPad Prism v8.

[3] = tested on: urothelial carcinoma (UC) cell lines; assay: XTT cell viability assay, UC cell lines; type: cell-based, Human; conditions: Homo sapiens; mean of three cell lines, 48 h
Experimental: as §1

[4] = tested on: prostate cancer (PCa) cell lines; assay: XTT cell viability assay, PCa cell lines; type: cell-based, Human; conditions: Homo sapiens; mean of three cell lines, 48 h
Experimental: as §1

[5] = tested on: renal cell carcinoma (RCC) cell lines; assay: XTT cell viability assay, RCC cell lines; type: cell-based; conditions: Homo sapiens; mean of three cell lines, 48 h
Experimental: as §1

[6] = tested on: 2102EP-R; assay: Flow cytometry apoptosis (Annexin V/PI), 2102EP-R; type: cell-based, Human; conditions: EC50, 16 h, compared to the parental cell line
[7] = tested on: GCT cells; assay: Flow cytometry cell cycle (PI), GCT cells; type: cell-based, Human; conditions: EC50, 16 h
Experimental: For Annexin V/PI staining, cells were washed with Annexin V Binding Buffer before being resuspended in 70 µl Annexin V Binding Buffer and 2.5 μl Annexin V FITC-conjugate (both Miltenyi Biotec, Bergisch Gladbach, Germany) and 15 µg PI (Sigma-Aldrich, Taufkirchen, Germany) and incubated in the dark at room temperature for 15 min. 500 µl of Annexin V Binding Buffer was added before measurement. For the cell cycle analysis, cells were washed with PBS (phosphate buffered saline), fixed by ice cold 70% ethanol and stained with 2 µg/ml PI and 200 µg/ml RNaseA (Quiagen, Hilden, Germany 100 mg/ml) in PBS shortly before every measurement. At least 5 × 10^4 cells were counted and analyzed using the MACSQuant software v 2.13.0.

[8] = tested on: histone modifications in 2102EP cells; assay: Mass spectrometry analysis of histone modifications (Mod Spec); type: cell-based, Human
Procedure, shortened: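 2102EP cells were treated for 16 h with EC50 concentrations of Quisinostat, JIB-04, Chaetocin, MZ-1, LP99, PRT4165 or GSK343, with DMSO as solvent control. After trypsin harvest, histones were extracted and analysed by mass spectrometry. Raw data were converted to z-scores.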

[9] = 2102EP cells, Mod Spec raw data
[10] = 2102EP, EC50, 16 h, vs solvent control

CN1C(=O)[C@@]23C[C@]4([C@]56C[C@@]78SS[C@@](CO)(C(=O)N7[C@H]5Nc5ccccc56)N(C)C8=O)c5ccccc5N[C@@H]4N2C(=O)[C@]1(CO)SS3 [Chaetocin]
EC50 ([1]; Homo sapiens, GCT, cell line not stated, read-out: EC50 concentration used for low dose qRT-PCR): 173 nM
EC50 / effective concentration in words ([1]; first pre-screen, SE and EC proxies TCam-2 and 2102EP, XTT): nanomolar range
EC50 [2]: < 1000 nM
EC50 [3]: 99.6 nM
EC50 [4]: 233 nM
EC50 [5]: 156 nM
apoptosis induction in 2102EP-R [6]: did not induce apoptosis
cell cycle phase accumulation in GCT cells [7]: accumulation in the G2/M phase
H1.4: K25AC, % of peptide pool [8, 9]: 0.02988%
H1.4: K25ME1, % of peptide pool [8, 9]: 2.019%
H1.4: K25ME2, % of peptide pool [8, 9]: 0.1186%
H1.4: K25ME3, % of peptide pool [8, 9]: 0.02061%
H1.4: K25UN, % of peptide pool [8, 9]: 97.812%
H2A1: K13AC, % of peptide pool [8, 9]: 0.0146%
H2A1: K13UN, % of peptide pool [8, 9]: 99.9854%
H2A1: K15AC, % of peptide pool [8, 9]: 0.01159%
H2A1: K15UB, % of peptide pool [8, 9]: 0%
H2A1: K15UN, % of peptide pool [8, 9]: 99.9884%
H2A3: K13AC, % of peptide pool [8, 9]: 0.04893%
H2A3: K13UN, % of peptide pool [8, 9]: 99.9511%
H2A3: K15AC, % of peptide pool [8, 9]: 0.07659%
H2A3: K15UB, % of peptide pool [8, 9]: 0%
H2A3: K15UN, % of peptide pool [8, 9]: 99.9234%
H2A: K5AC, % of peptide pool [8, 9]: 14.3188%
H2A: K5UN, % of peptide pool [8, 9]: 85.6812%
H2A: K9AC, % of peptide pool [8, 9]: 1.675%
H2A: K9UN, % of peptide pool [8, 9]: 98.3248%
H2A: K36AC, % of peptide pool [8, 9]: 0.05938%
H2A: K36UN, % of peptide pool [8, 9]: 99.9406%
H3: K9AC, % of peptide pool [8, 9]: 0.8662%
H3: K9ME1, % of peptide pool [8, 9]: 34.1794%
H3: K9ME2, % of peptide pool [8, 9]: 24.6408%
H3: K9ME3, % of peptide pool [8, 9]: 2.426%
H3: K9UN, % of peptide pool [8, 9]: 37.8878%
H3: K14AC, % of peptide pool [8, 9]: 29.886%
H3: K14UN, % of peptide pool [8, 9]: 70.114%
H3: K18AC, % of peptide pool [8, 9]: 12.8748%
H3: K18ME1, % of peptide pool [8, 9]: 0.1543%
H3: K18UN, % of peptide pool [8, 9]: 86.9709%
H3: K23AC, % of peptide pool [8, 9]: 19.2205%
H3: K23ME1, % of peptide pool [8, 9]: 0.03585%
H3: K23UN, % of peptide pool [8, 9]: 80.7437%
H3: K56AC, % of peptide pool [8, 9]: 0.2394%
H3: K56ME1, % of peptide pool [8, 9]: 0.9888%
H3: K56UN, % of peptide pool [8, 9]: 98.7718%
H3: K64AC, % of peptide pool [8, 9]: 0.03741%
H3: K64UN, % of peptide pool [8, 9]: 99.9626%
H3: K79AC, % of peptide pool [8, 9]: 1.813%
H3: K79ME1, % of peptide pool [8, 9]: 15.4225%
H3: K79ME2, % of peptide pool [8, 9]: 5.182%
H3: K79ME3, % of peptide pool [8, 9]: 17.8629%
H3: K79UN, % of peptide pool [8, 9]: 59.719%
H3: K122AC, % of peptide pool [8, 9]: 0.1813%
H3: K122UN, % of peptide pool [8, 9]: 99.8187%
H3: Q19ME1, % of peptide pool [8, 9]: 0.03077%
H3: Q19UN, % of peptide pool [8, 9]: 99.9692%
H3: Q55ME1, % of peptide pool [8, 9]: 0.2687%
H3: Q55UN, % of peptide pool [8, 9]: 99.7313%
H3: R42ME2, % of peptide pool [8, 9]: 2.246%
H3: R42UN, % of peptide pool [8, 9]: 97.7541%
H3: R49ME2, % of peptide pool [8, 9]: 6.84%
H3: R49UN, % of peptide pool [8, 9]: 93.1597%
H3R2UN: K4AC, % of peptide pool [8, 9]: 0.1823%
H3R2UN: K4ME1, % of peptide pool [8, 9]: 17.5028%
H3R2UN: K4ME2, % of peptide pool [8, 9]: 0.3386%
H3R2UN: K4ME3, % of peptide pool [8, 9]: 0.1482%
H3R2UN: K4UN, % of peptide pool [8, 9]: 81.8281%
H3R2UN: Q5ME1, % of peptide pool [8, 9]: 0.09687%
H3R2UN: Q5UN, % of peptide pool [8, 9]: 99.9031%
H3.1: K27AC, % of peptide pool [8, 9]: 2.462%
H3.1: K27ME1, % of peptide pool [8, 9]: 46.5828%
H3.1: K27ME2, % of peptide pool [8, 9]: 19.949%
H3.1: K27ME3, % of peptide pool [8, 9]: 2.906%
H3.1: K27UN, % of peptide pool [8, 9]: 28.0999%
H3.1: K36AC, % of peptide pool [8, 9]: 0.3566%
H3.1: K36ME1, % of peptide pool [8, 9]: 14.5986%
H3.1: K36ME2, % of peptide pool [8, 9]: 44.4208%
H3.1: K36ME3, % of peptide pool [8, 9]: 21.3142%
H3.1: K36UN, % of peptide pool [8, 9]: 19.3097%
H3.3: K27AC, % of peptide pool [8, 9]: 5.581%
H3.3: K27M, % of peptide pool [8, 9]: 0%
H3.3: K27ME1, % of peptide pool [8, 9]: 45.9713%
H3.3: K27ME2, % of peptide pool [8, 9]: 14.9979%
H3.3: K27ME3, % of peptide pool [8, 9]: 5.393%
H3.3: K27UN, % of peptide pool [8, 9]: 28.0564%
H3.3: K36AC, % of peptide pool [8, 9]: 3.238%
H3.3: K36ME1, % of peptide pool [8, 9]: 13.4078%
H3.3: K36ME2, % of peptide pool [8, 9]: 46.3675%
H3.3: K36ME3, % of peptide pool [8, 9]: 22.3154%
H3.3: K36UN, % of peptide pool [8, 9]: 14.6709%
H4: K5AC, % of peptide pool [8, 9]: 7.567%
H4: K5UN, % of peptide pool [8, 9]: 92.4335%
H4: K8AC, % of peptide pool [8, 9]: 11.8437%
H4: K8UN, % of peptide pool [8, 9]: 88.1563%
H4: K12AC, % of peptide pool ([8]; 2102EP cells, Mod Spec raw data, histone H4 K12 acetylated): 6.89 % of peptide pool
H4: K12UN, % of peptide pool ([8]; 2102EP cells, Mod Spec raw data, histone H4 K12 unmodified): 93.1103 % of peptide pool
H4: K16AC, % of peptide pool ([8]; 2102EP cells, Mod Spec raw data, histone H4 K16 acetylated): 48.815 % of peptide pool
H4: K16UN, % of peptide pool ([8]; 2102EP cells, Mod Spec raw data, histone H4 K16 unmodified): 51.185 % of peptide pool
H4: K20AC, % of peptide pool ([8]; 2102EP cells, Mod Spec raw data, histone H4 K20 acetylated): 23.7533 % of peptide pool
H4: K20ME2, % of peptide pool ([8]; 2102EP cells, Mod Spec raw data, histone H4 K20 dimethylated): 42.9015 % of peptide pool
H4: K20ME1, % of peptide pool ([8]; 2102EP cells, Mod Spec raw data, histone H4 K20 monomethylated): 5.498 % of peptide pool
H4: K20ME3, % of peptide pool ([8]; 2102EP cells, Mod Spec raw data, histone H4 K20 trimethylated): 1.56 % of peptide pool
H4: K20UN, % of peptide pool ([8]; 2102EP cells, Mod Spec raw data, histone H4 K20 unmodified): 26.2873 % of peptide pool
change of histone modifications of the expected mode of action (Mod Spec) [8, 10]: reduction of H3K9me2/me3
off-target changes of histone modifications (Mod Spec) [8, 10]: increase of H4K20ac
